Data taken from ChEMBL document CHEMBL2073828, “The breast cancer resistance protein (Bcrp1/Abcg2) restricts exposure to the dietary carcinogen 2-amino-1-methyl-6-phenylimidazo[4,5-b]pyridine” (Cancer Res, 2003).

Tests used:
[1] = target: T1, Broad substrate specificity ATP-binding cassette transporter ABCG2 (Mus musculus, UniProt Q7TMS5); assay: TP_TRANSPORTER: intestinal excretion; assay type: functional, organism-based; settings: in vivo
T1 sequence (Q7TMS5 whole entry): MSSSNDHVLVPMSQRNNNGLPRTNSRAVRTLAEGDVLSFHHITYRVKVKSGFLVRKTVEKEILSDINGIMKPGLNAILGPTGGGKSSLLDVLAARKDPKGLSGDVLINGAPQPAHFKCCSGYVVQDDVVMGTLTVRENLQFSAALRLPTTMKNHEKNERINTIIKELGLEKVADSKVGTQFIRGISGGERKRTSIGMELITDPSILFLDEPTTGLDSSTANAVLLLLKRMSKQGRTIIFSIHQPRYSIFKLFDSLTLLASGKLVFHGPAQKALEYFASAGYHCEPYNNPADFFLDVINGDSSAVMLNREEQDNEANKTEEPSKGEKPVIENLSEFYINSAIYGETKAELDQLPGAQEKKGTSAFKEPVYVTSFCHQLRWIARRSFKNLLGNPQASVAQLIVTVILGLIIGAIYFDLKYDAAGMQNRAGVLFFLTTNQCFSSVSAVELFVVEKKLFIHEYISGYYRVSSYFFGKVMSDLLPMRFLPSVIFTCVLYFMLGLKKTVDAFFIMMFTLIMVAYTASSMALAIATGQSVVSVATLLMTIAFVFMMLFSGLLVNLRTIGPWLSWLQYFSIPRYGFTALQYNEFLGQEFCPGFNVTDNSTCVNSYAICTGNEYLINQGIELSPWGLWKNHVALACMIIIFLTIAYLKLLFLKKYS

[2] = target: T1, Broad substrate specificity ATP-binding cassette transporter ABCG2; assay: TP_TRANSPORTER: biliary excretion; assay type: functional, organism-based, Bile; settings: in vivo
[3] = target: T1, Broad substrate specificity ATP-binding cassette transporter ABCG2; assay: TP_TRANSPORTER: transcellular transport in MDCKII; assay type: functional, cell-based; settings: dog, mdck-ii

Measured: Activity

Cn1c(N)nc2ncc(-c3ccccc3)cc21 [2-AMINO-1-METHYL-6- PHENYLIMIDAZO[4,5- B]PYRIDINE]
substrate []: all assays above
